Measurements as given in patent publication US11028061B2, “Modulators of myocyte lipid accumulation and insulin resistance and methods of use thereof” (Sanford Burnham Prebys Medical Discovery Institute, priority 2015, dated 2021).

These compounds were tested on primary murine skeletal myocytes (assay: TAG accumulation in primary murine skeletal myocytes). Conditions: Mus musculus, read-out: Activity Score (IC50), triacylglyceride (TAG) accumulation.
Type: cell-based

COc1ccc(-c2csc(NC(=O)c3ccc(OCC(=O)N4CCC(=O)CC4)c(OC)c3)n2)cc1 [Cpd. 12, 3-methoxy-N-(4-(4-methoxyphenyl)thiazol-2-yl)-4-(2-oxo-2-(4-oxopiperidin-1-yl)ethoxy)benzamide] was tested, and the IC50 was 1000 to 10000 nM.

Same assay, conditions: Mus musculus; primary murine skeletal myocytes; read-out: Activity Score (IC50), triacylglyceride (TAG) accumulation

COc1ccc(-c2csc(NC(=O)c3ccc(O)c(OC)c3)n2)cc1 [Cpd. 1, 4-hydroxy-3-methoxy-N-(4-(4-methoxyphenyl)thiazol-2-yl)benzamide] and COc1cc(C(=O)Nc2nc(-c3ccc(C)cc3)cs2)ccc1O [Cpd. 3, 4-hydroxy-3-methoxy-N-(4-(p-tolyl)thiazol-2-yl)benzamide] cannot be ordered by IC50: greater than 10000 nM for the first, greater than 10000 nM for the second.

First: COc1cc(C(=O)Nc2nc(-c3ccccc3)cs2)ccc1O [Cpd. 2, 4-hydroxy-3-methoxy-N-(4-phenylthiazol-2-yl)benzamide]
Second: COc1cc(C(=O)Nc2nc(-c3ccc(Cl)cc3)cs2)ccc1O [Cpd. 4, N-(4-(4-chlorophenyl)thiazol-2-yl)-4-hydroxy-3-methoxybenzamide]
The IC50 of the first is higher: greater than 10000 nM for the first, 1000 to 10000 nM for the second. The second is the more potent here.

COc1cc(C(=O)Nc2nc(-c3ccc(Cl)c(Cl)c3)cs2)ccc1O [Cpd. 5, N-(4-(3,4-dichlorophenyl)thiazol-2-yl)-4-hydroxy-3-methoxybenzamide] and COc1cc(C(=O)Nc2nc(-c3ccc(C#N)cc3)cs2)ccc1O [Cpd. 6, N-(4-(4-cyanophenyl)thiazol-2-yl)-4-hydroxy-3-methoxybenzamide] fall in the same range of IC50: 1000 to 10000 nM for the first, 1000 to 10000 nM for the second.

First: COc1ccc(-c2csc(NC(=O)c3ccc(OCC(=O)N4CCCCC4)c(OC)c3)n2)cc1 [Cpd. 8, 3-methoxy-N-(4-(4-methoxyphenyl)thiazol-2-yl)-4-(2-oxo-2-(piperidin-1-yl)ethoxy)benzamide]
Second: COc1ccc(-c2csc(NC(=O)c3ccc(OCC(=O)N4CCSCC4)c(OC)c3)n2)cc1 [Cpd. 11, 3-methoxy-N-(4-(4-methoxyphenyl)thiazol-2-yl)-4-(2-oxo-2-thiomorpholinoethoxy)benzamide]
The IC50 of the first is higher: 1000 to 10000 nM for the first, less than 1000 nM for the second.

First: COc1ccc(-c2csc(NC(=O)c3ccc(OCC(=O)N4CCN(C)CC4)c(OC)c3)n2)cc1 [Cpd. 9, 3-methoxy-N-(4-(4-methoxyphenyl)thiazol-2-yl)-4-(2-(4-methylpiperazin-1-yl)-2-oxoethoxy)benzamide]
Second: COc1ccc(-c2csc(NC(=O)c3ccc(OCC(=O)N4CCN(S(C)(=O)=O)CC4)c(OC)c3)n2)cc1 [Cpd. 13, 3-methoxy-N-(4-(4-methoxyphenyl)thiazol-2-yl)-4-(2-(4-(methylsulfonyl)piperazin-1-yl)-2-oxoethoxy)benzamide]
The IC50 of the first is lower: less than 1000 nM for the first, greater than 10000 nM for the second.

First: COc1ccc(-c2csc(NC(=O)c3ccc(OCC(=O)NCC4CC4)c(OC)c3)n2)cc1 [Cpd. 10, 4-(2-((cyclopropylmethyl)amino)-2-oxoethoxy)-3-methoxy-N-(4-(4-methoxyphenyl)thiazol-2-yl)benzamide]
Second: COc1ccc(-c2csc(NC(=O)c3ccc(OCC(=O)NC4CCC4)c(OC)c3)n2)cc1 [Cpd. 22, 4-(2-(cyclobutylamino)-2-oxoethoxy)-3-methoxy-N-(4-(4-methoxyphenyl)thiazol-2-yl)benzamide]
The IC50 of the first is higher: 1000 to 10000 nM for the first, less than 1000 nM for the second.

COc1ccc(-c2csc(NC(=O)c3ccc(OCC(=O)NCCN4CCCCC4)c(OC)c3)n2)cc1 [Cpd. 14, 3-methoxy-N-(4-(4-methoxyphenyl)thiazol-2-yl)-4-(2-oxo-2-((2-(piperidin-1-yl)ethyl)amino)ethoxy)benzamide] and COCCNC(=O)COc1ccc(C(=O)Nc2nc(-c3ccc(OC)cc3)cs2)cc1OC [Cpd. 20, 3-methoxy-4-(2-((2-methoxyethyl)amino)-2-oxoethoxy)-N-(4-(4-methoxyphenyl)thiazol-2-yl)benzamide] fall in the same range of IC50: 1000 to 10000 nM for the first, 1000 to 10000 nM for the second.

Compared with CCN(CCN(C)C)C(=O)COc1ccc(C(=O)Nc2nc(-c3ccc(OC)cc3)cs2)cc1OC [Cpd. 15, 4-(2-((2-(dimethylamino)ethyl)(ethyl)amino)-2-oxoethoxy)-3-methoxy-N-(4-(4-methoxyphenyl)thiazol-2-yl)benzamide], COc1ccc(-c2csc(NC(=O)c3ccc(OCC(=O)N(C)C)c(OC)c3)n2)cc1 [Cpd. 19, 4-(2-(dimethylamino)-2-oxoethoxy)-3-methoxy-N-(4-(4-methoxyphenyl)thiazol-2-yl)benzamide] is lower in IC50: greater than 10000 nM for the first, 1000 to 10000 nM for the second. The second is the more potent here.

First: COC(=O)CNC(=O)COc1ccc(C(=O)Nc2nc(-c3ccc(OC)cc3)cs2)cc1OC [Cpd. 16, Methyl (2-(2-methoxy-4-((4-(4-methoxyphenyl)thiazol-2-yl)carbamoyl)phenoxy)acetyl)glycinate]
Second: CNC(=O)COc1ccc(C(=O)Nc2nc(-c3ccc(OC)cc3)cs2)cc1OC [Cpd. 18, 3-methoxy-N-(4-(4-methoxyphenyl)thiazol-2-yl)-4-(2-(methylamino)-2-oxoethoxy)benzamide]
The IC50 of the first is higher: greater than 10000 nM for the first, less than 1000 nM for the second.

COc1ccc(-c2csc(NC(=O)c3ccc(OCC(N)=O)c(OC)c3)n2)cc1 [Cpd. 17, 4-(2-amino-2-oxoethoxy)-3-methoxy-N-(4-(4-methoxyphenyl)thiazol-2-yl)benzamide] and COCCCNC(=O)COc1ccc(C(=O)Nc2nc(-c3ccc(OC)cc3)cs2)cc1OC [Cpd. 21, 3-methoxy-N-(4-(4-methoxyphenyl)thiazol-2-yl)-4-(2-((3-methoxypropyl)amino)-2-oxoethoxy)benzamide] fall in the same range of IC50: 1000 to 10000 nM for the first, 1000 to 10000 nM for the second.

First: COc1ccc(-c2csc(NC(=O)c3ccc(OCC(=O)NCc4ccccc4)c(OC)c3)n2)cc1 [Cpd. 23, 4-(2-(benzylamino)-2-oxoethoxy)-3-methoxy-N-(4-(4-methoxyphenyl)thiazol-2-yl)benzamide]
Second: COc1ccc(-c2csc(NC(=O)c3ccc(OCC(=O)NCc4ccccn4)c(OC)c3)n2)cc1 [Cpd. 24, 3-methoxy-N-(4-(4-methoxyphenyl)thiazol-2-yl)-4-(2-oxo-2-((pyridin-2-ylmethyl)amino)ethoxy) Benzamide]
The IC50 of the first is lower: 1000 to 10000 nM for the first, greater than 10000 nM for the second.

COc1cc(C(=O)Nc2nc(-c3ccccc3)cs2)ccc1OCC(=O)N1CCOCC1 [Cpd. 25, 3-methoxy-4-(2-morpholino-2-oxoethoxy)-N-(4-phenylthiazol-2-yl)benzamide] and COc1cc(C(=O)Nc2nc(-c3ccc(O)cc3)cs2)ccc1OCC(=O)N1CCOCC1 [Cpd. 27, N-(4-(4-hydroxyphenyl)thiazol-2-yl)-3-methoxy-4-(2-morpholino-2-oxoethoxy)benzamide] cannot be ordered by IC50: less than 1000 nM for the first, less than 1000 nM for the second.

COc1cc(C(=O)Nc2nc(-c3ccc(OC(F)(F)F)cc3)cs2)ccc1OCC(=O)N1CCOCC1 [Cpd. 26, 3-methoxy-4-(2-morpholino-2-oxoethoxy)-N-(4-(4-(trifluoromethoxy)phenyl)thiazol-2-yl)benzamide] and CCOc1ccc(-c2csc(NC(=O)c3ccc(OCC(=O)N4CCOCC4)c(OC)c3)n2)cc1 [Cpd. 28, N-(4-(4-ethoxyphenyl)thiazol-2-yl)-3-methoxy-4-(2-morpholino-2-oxoethoxy)benzamide] cannot be ordered by IC50: less than 1000 nM for the first, less than 1000 nM for the second.

COc1cc(C(=O)Nc2nc(-c3ccc(OC(C)C)cc3)cs2)ccc1OCC(=O)N1CCOCC1 [Cpd. 29, N-(4-(4-isopropoxyphenyl)thiazol-2-yl)-3-methoxy-4-(2-morpholino-2-oxoethoxy)benzamide] and COc1cc(C(=O)Nc2nc(-c3ccc(C)cc3)cs2)ccc1OCC(=O)N1CCOCC1 [Cpd. 30, 3-methoxy-4-(2-morpholino-2-oxoethoxy)-N-(4-(p-tolyl)thiazol-2-yl)benzamide] cannot be ordered by IC50: less than 1000 nM for the first, less than 1000 nM for the second.

COc1cc(C(=O)Nc2nc(-c3ccc(Cl)cc3)cs2)ccc1OCC(=O)N1CCOCC1 [Cpd. 31, N-(4-(4-chlorophenyl)thiazol-2-yl)-3-methoxy-4-(2-morpholino-2-oxoethoxy)benzamide] and COc1cc(C(=O)Nc2nc(-c3ccc(C#N)cc3)cs2)ccc1OCC(=O)N1CCOCC1 [Cpd. 32, N-(4-(4-cyanophenyl)thiazol-2-yl)-3-methoxy-4-(2-morpholino-2-oxoethoxy)benzamide] cannot be ordered by IC50: less than 1000 nM for the first, less than 1000 nM for the second.

Compared with COc1cc(C(=O)Nc2nc(-c3ccc([N+](=O)[O-])cc3)cs2)ccc1OCC(=O)N1CCOCC1 [Cpd. 33, 3-methoxy-4-(2-morpholino-2-oxoethoxy)-N-(4-(4-nitrophenyl)thiazol-2-yl)benzamide], COc1cccc(-c2csc(NC(=O)c3ccc(OCC(=O)N4CCOCC4)c(OC)c3)n2)c1 [Cpd. 35, 3-methoxy-N-(4-(3-methoxyphenyl)thiazol-2-yl)-4-(2-morpholino-2-oxoethoxy)benzamide] is higher in IC50: less than 1000 nM for the first, 1000 to 10000 nM for the second. The first is the more potent here.

COc1cc(C(=O)Nc2nc(-c3ccc(N4CCCC4)cc3)cs2)ccc1OCC(=O)N1CCOCC1 [Cpd. 34, 3-methoxy-4-(2-morpholino-2-oxoethoxy)-N-(4-(4-(pyrrolidin-1-yl)phenyl)thiazol-2-yl)benzamide] and COc1cc(C(=O)Nc2nc(-c3ccc(Cl)c(Cl)c3)cs2)ccc1OCC(=O)N1CCOCC1 [Cpd. 37, N-(4-(3,4-dichlorophenyl)thiazol-2-yl)-3-methoxy-4-(2-morpholino-2-oxoethoxy)benzamide] cannot be ordered by IC50: less than 1000 nM for the first, less than 1000 nM for the second.

Compared with COc1ccc(-c2csc(NC(=O)c3ccc(OCC(=O)N4CCOCC4)c(OC)c3)n2)c(OC)c1 [Cpd. 36, N-(4-(2,4-dimethoxyphenyl)thiazol-2-yl)-3-methoxy-4-(2-morpholino-2-oxoethoxy)benzamide], COc1ccc(-c2csc(NC(=O)c3ccc(OCC(=O)N4CCOCC4)c(OC)c3)n2)cc1OC [Cpd. 38, N-(4-(3,4-dimethoxyphenyl)thiazol-2-yl)-3-methoxy-4-(2-morpholino-2-oxoethoxy)benzamide] is higher in IC50: less than 1000 nM for the first, 1000 to 10000 nM for the second. The first is the more potent here.

Compared with COc1cc(C(=O)Nc2nc(-c3ccc4c(c3)OCO4)cs2)ccc1OCC(=O)N1CCOCC1 [Cpd. 39, N-(4-(benzo[d][1,3]dioxol-5-yl)thiazol-2-yl)-3-methoxy-4-(2-morpholino-2-oxoethoxy)benzamide], COc1ccc(-c2csc(NC(=O)c3ccc(OCC(=O)N4CCOCC4)cc3)n2)cc1 [Cpd. 41, N-(4-(4-methoxyphenyl)thiazol-2-yl)-4-(2-morpholino-2-oxoethoxy)benzamide] is lower in IC50: 1000 to 10000 nM for the first, less than 1000 nM for the second. The second is the more potent here.

O=C(Nc1nc(-c2ccc(OC(F)F)cc2)cs1)c1ccc(OCC(=O)N2CCOCC2)cc1 [Cpd. 40, N-(4-(4-(difluoromethoxy)phenyl)thiazol-2-yl)-4-(2-morpholino-2-oxoethoxy)benzamide] gave an IC50 of less than 1000 nM.
